{
  "source": "patent US12357598B2",
  "about": "“Treatment of neurodevelopmental disorders” (THE REGENTS OF THE UNIVERSITY OF CALIFORNIA, priority 2018, dated 2025)",
  "assay_type_in_all_cases": "in vivo, mouse",
  "key": {"pregnant ddY mice": {"tested_on": "pregnant ddY mice", "test": "General data (mortality, body weight, behavioral abnormality) of mothers and offspring after maternal glyphosate exposure", "conditions": "for Behavioral abnormality: juvenile offspring", "description": "Treatment of glyphosate in drinking water into pregnant mice. Previous studies used drinking water containing 0.38% glyphosate (1% Roundup®) during pregnancy and lactation, equivalent to 50 mg/kg/day of glyphosate (1,2). This does correspond with 1/20 of the glyphosate no-observed-adverse-effect level, as described previously (3). Therefore, water or glyphosate [or 0.1, 0.25, 0.50, 0.75, 1.0% Roundup®, Nissan Chemical Corporation, Tokyo, Japan] were given to the pregnant mice from E5 to P21 (weaning). The male offspring were separated from their mothers at weaning (P21), and mice were caged each three-five in the groups in clear polycarbonate cage (22.5×33.8×14.0 cm). Mice were housed under controlled temperatures and 12 hour light/dark cycles (lights on between 07:00-19:00 h), with ad libitum food and water.\nTreatment of TPPU. TPPU was dissolved in polyethylene glycol 400 (PEG 400: Tokyo Chemical Industry Co., Ltd, Tokyo, Japan). TPPU (3 mg/kg/day) or vehicle (5 ml/kg, PEG 400) was administered orally in the pregnant mice from E5 to P21. Behavioral tests of offspring were performed during juvenile stage (P28-P35) after maternal glyphosate exposure (FIG. 1A)."}, "[1]": {"test": "Measurement of glyphosate in the blood (LC/MS/MS)", "conditions": "mothers treated with 0.095% glyphosate E5-P21 and their offspring", "description": "Measurement of glyphosate in the blood. Water or 0.095% glyphosate was given to pregnant mice from E5 to P21, as described above. At weaning (P21), mothers and male offspring mice were deeply anesthetized with isoflurane and plasma was collected. The plasma samples were stored at −80° C. before assay. Measurement of glyphosate in the plasma was performed using LC/MS/MS at UC Davis.\nThe 40 μL of internal standard (2 μg/mL of glyphosate-2-^13C solution in methanol) and 40 μL of methanol were added to 20 μL of plasma. The spiked sample was vortexed for 5 minutes and then centrifuged at […] for another 5 minutes. The supernatants were transferred for the followed LC/MS/MS measurement, which uses Waters Acquity UPLC system (Waters, Milford, MA) interfaced with a QTRAP 6500+ mass spectrometer (Sciex, Redwood City, CA) using electrospray source. The separation was achieved on a Waters Acquity BEH C18 50×2.1 mm 1.7 μm column with mobile phases of water with 0.1% of formic acid as mobile phase A and acetonitrile with 0.1% of formic acid as mobile phase B. The gradient was shown in Table 10. All the parameters on the mass spectrometer were optimized with pure standards of glyphosate and glyphosate-2-^13C (purchased from Millipore Sigma, Burlington MA) under positive MRM mode."}, "Ephx2 mRNA": {"tested_on": "Ephx2 mRNA", "test": "Quantitative RT-PCR of Ephx2 mRNA after maternal glyphosate exposure", "conditions": "juvenile offspring (P28) after maternal glyphosate exposure vs water", "excerpt": "Gene expression analysis by quantitative real-time PCR. At juvenile (P28) stage, mice were sacrificed, and their brains were removed for measurement of gene expression of Ephx2 mRNA. Brain regions such as PFC, hippocampus, and striatum were dissected from brain on ice. A quantitative RT-PCR system (Step One Plus, Thermo Fisher Scientific, Yokohama, Japan) was used to measure mRNAs. The specific mRNA transcripts were quantified by TaqManGene Expression assays (Thermo Fisher Scientific, Yokohama, Japan). Expression levels of Ephx2 (Mm01313813_m1) was measured in brain tissue. Total RNA was extracted by use of an RNeasy Mini Kit (Qiagen, Hilden, Germany). The purity of total RNA was assessed by Biophotometer plus (Eppendorf, Hamburg, Germany). The RNA samples were used in the first strand cDNA synthesis with High Capacity cDNA Reverse Transcription Kit (#4368813 Thermo Fisher Scientific, Yokohama, Japan). All samples were tested in triplicate and average values were used for quantification. The average values were normalized to Vic-labeled Actb mRNA (Cat #4352341E: pre-developed TaqMan Assay Reagents, Thermo Fisher Scientific, Yokohama, Japan)."}, "gut microbiota": {"tested_on": "gut microbiota", "test": "16S rRNA analysis of fecal samples after maternal glyphosate exposure", "conditions": "juvenile offspring (P28)", "description": "16S rRNA analysis and measurement of short-chain fluty acids of fecal samples. On P28, we collected fresh fecal samples from each mouse at around 10:00 in order to avoid circadian effects on the microbiome. The fecal samples were put into a sterilized screw cap microtube immediately after defecation, and these samples were stored at −80° C. until use. DNA extraction from mouse feces and 16S rRNA analysis of fecal samples were performed by MyMetagenome Co, Ltd. (Tokyo, Japan), as reported previously (20,21)."}, "[2]": {"conditions": "0.038% glyphosate (0.1% Roundup)"}, "[3]": {"conditions": "0.095% glyphosate (0.25% Roundup)"}, "[4]": {"conditions": "0.19% glyphosate (0.50% Roundup)"}, "[5]": {"conditions": "0.285% glyphosate (0.75% Roundup)"}},
  "data": [
    {"smiles": "O=C(O)CNCP(=O)(O)O", "note": "[glyphosate]", "values": [
      {"measurement": "Alive number of offspring on P21", "setting": "pregnant ddY mice; [2]", "value": 33},
      {"measurement": "Maternal mortality", "setting": "pregnant ddY mice; [2]", "value": 0, "unit": "%"},
      {"measurement": "Number of offspring born", "setting": "pregnant ddY mice; [2]", "value": 33},
      {"measurement": "Offspring mortality", "setting": "pregnant ddY mice; [2]", "value": 0, "unit": "%"},
      {"measurement": "Alive number of mothers on P0", "setting": "pregnant ddY mice; 0.038% glyphosate (0.1% Roundup), 3 mothers used", "value": 3},
      {"measurement": "Alive number of offspring on P21", "setting": "pregnant ddY mice; [3]", "value": 24},
      {"measurement": "Maternal mortality", "setting": "pregnant ddY mice; [3]", "value": 0, "unit": "%"},
      {"measurement": "Number of offspring born", "setting": "pregnant ddY mice; [3]", "value": 30},
      {"measurement": "Offspring mortality", "setting": "pregnant ddY mice; [3]", "value": 20, "unit": "%"},
      {"measurement": "Alive number of mothers on P0", "setting": "pregnant ddY mice; 0.095% glyphosate (0.25% Roundup), 3 mothers used", "value": 3},
      {"measurement": "body weight of mothers at E17", "setting": "pregnant ddY mice; 0.095% glyphosate vs water exposure mothers", "value": "significantly lower"},
      {"measurement": "Alive number of offspring on P21", "setting": "pregnant ddY mice; [4]", "value": 2},
      {"measurement": "Maternal mortality", "setting": "pregnant ddY mice; [4]", "value": 20, "unit": "%"},
      {"measurement": "Number of offspring born", "setting": "pregnant ddY mice; [4]", "value": 43},
      {"measurement": "Offspring mortality", "setting": "pregnant ddY mice; [4]", "value": 95.3, "unit": "%"},
      {"measurement": "Alive number of mothers on P0", "setting": "pregnant ddY mice; 0.19% glyphosate (0.50% Roundup), 5 mothers used", "value": 4},
      {"measurement": "Alive number of offspring on P21", "setting": "pregnant ddY mice; [5]", "value": 4},
      {"measurement": "Maternal mortality", "setting": "pregnant ddY mice; [5]", "value": 25, "unit": "%"},
      {"measurement": "Number of offspring born", "setting": "pregnant ddY mice; [5]", "value": 32},
      {"measurement": "Offspring mortality", "setting": "pregnant ddY mice; [5]", "value": 87.5, "unit": "%"},
      {"measurement": "Alive number of mothers on P0", "setting": "pregnant ddY mice; 0.285% glyphosate (0.75% Roundup), 4 mothers used", "value": 3},
      {"measurement": "Alive number of offspring on P21", "setting": "pregnant ddY mice; 0.38% glyphosate (1% Roundup)", "value": 0},
      {"measurement": "Number of offspring born", "setting": "pregnant ddY mice; 0.38% glyphosate (1% Roundup)", "value": 0},
      {"measurement": "Maternal mortality", "setting": "pregnant ddY mice; 0.38% glyphosate (1% Roundup) in drinking water from E5", "value": 100, "unit": "%"},
      {"measurement": "Alive number of mothers on P0", "setting": "pregnant ddY mice; 0.38% glyphosate (1% Roundup) in drinking water from E5, 4 mothers used", "value": 0},
      {"measurement": "body weight of pregnant mice", "setting": "pregnant ddY mice; glyphosate 0.038%-0.285%", "value": "increased gradually"},
      {"measurement": "body weight of pregnant mice", "setting": "pregnant ddY mice; high concentration (0.38%) glyphosate", "value": "not increased"},
      {"measurement": "Behavioral abnormality", "setting": "pregnant ddY mice; 0.038% glyphosate (0.1% Roundup), locomotion, three chamber test, forced swimming test", "value": "did not show any behavioral abnormality"},
      {"measurement": "Behavioral abnormality", "setting": "pregnant ddY mice; [3]", "value": "observed"},
      {"measurement": "blood levels of glyphosate on P21 (weaning)", "setting": "[1]", "value": "could detect"},
      {"measurement": "gene expression of sEH (or Ephx2) mRNA in the PFC, hippocampus, and striatum", "setting": "Ephx2 mRNA", "value": "significantly higher"},
      {"measurement": "composition of gut microbiota", "setting": "gut microbiota; maternal glyphosate exposure", "value": "abnormal composition"},
      {"measurement": "relative abundance of Clostridium sp. Clone-1, Enterorhabdus muris, Clostridium sp. Clone-46, and Butyricimonas virosa", "setting": "gut microbiota; vs water-treated group", "value": "significantly higher"},
      {"measurement": "relative abundance of Eubacterium plexicaudatum, Lachnospiraceae bacterium 538, and Clostridium tertium", "setting": "gut microbiota; vs water-treated group", "value": "significantly lower"}
    ]}
  ]
}
